Assay results taken from PubChem BioAssay AID588437 (Southern Research Specialized Biocontainment Screening …, 2011).
Values joined by “and” are separate entries in the source; they are usually repeats but may differ in a detail not shown here. Equal values may be shown once. Records with an inconclusive call do not appear. Active and inactive are the calls of the source. How the calls were made is not given here.

Experiments:
[1] = tested on: Mycobacterium tuberculosis H37Rv growth inhibition, no glycerol; experiment: Mycobacterium tuberculosis h37rv growth inhibition in absence of glycerol, confirmatory dose response (AID 588437); conditions: for IC50: measured here: IC50 growth inhibition replicates
[2] = as above; conditions: Mycobacterium tuberculosis H37Rv growth inhibition, no glycerol

SMILES | IC90 [1] [µM] | IC50 [1] | outcome [2]
CCOC(=O)N1CCC(Nc2c(Nc3cccc(CC)c3)c(=O)c2=O)CC1 | 85.3 | 65.1 µM | –
CCOC(=O)CSc1ncnc2c1cnn2-c1ccc(C)cc1C | 7.19 | 5 µM | –
O=C(c1ccc(CNc2c(N3CCCC3)c(=O)c2=O)cc1)N1CC=C(c2ccccc2)CC1 | – | 12.5 µM and 8.13 µM | –
CCOc1ccc(NC(=O)c2ccc(CNc3c(N4CCCC4)c(=O)c3=O)cc2)cc1 | – | – | inactive
O=C(C1CCC(CNc2c(N3CCCCC3)c(=O)c2=O)CC1)N1CCCCC1 (centres undefined) | – | 59.6 µM | –
CC1CC(C)CN(C(=O)c2ccc(CNc3c(N4CCCC4)c(=O)c3=O)cc2)C1 (centres undefined) | – | 22.8 µM | –
CC(=O)c1ccc(NC(=O)c2ccc(CNc3c(N4CCOCC4)c(=O)c3=O)cc2)cc1 | – | > 98.8 µM | –
O=C(NCCc1ccc(Cl)cc1)C1CCC(CNc2c(N3CCCCC3)c(=O)c2=O)CC1 (centres undefined) | – | 22.4 µM | –
CC1CCCN(C(=O)C2CCC(CNc3c(N4CCCCC4)c(=O)c3=O)CC2)C1 (centres undefined) | – | 64.3 µM | –
O=C(c1ccc(CNc2c(N3CCOCC3)c(=O)c2=O)cc1)N1CC=C(c2ccccc2)CC1 | 15.4 | 4.83 µM | –
CC1CC(C)CN(C(=O)C2CCC(CNc3c(N4CCCCC4)c(=O)c3=O)CC2)C1 (centres undefined) | – | 26.9 µM and 35.5 µM | –
COc1ccc(N2CCN(C(=O)c3ccc(CNc4c(N5CCOCC5)c(=O)c4=O)cc3)CC2)cc1 | – | 21.7 µM and 18.5 µM | –
CC1CCN(C(=O)c2ccc(CNc3c(N4CCCC4)c(=O)c3=O)cc2)CC1 | – | 20.3 µM | –
O=C(NCCc1ccc(Cl)cc1)c1ccc(CNc2c(N3CCOCC3)c(=O)c2=O)cc1 | – | 11 µM and 11.2 µM | –
CCOC(=O)CSc1ncnc2c1cnn2-c1ccccc1 | 47.7 | 30.2 µM | –
CC(C)OC(=O)CSc1ncnc2c1cnn2-c1ccccc1 | – | 29.5 µM | –
CCC(C)NC(=O)CSc1nc2ccccc2c(=O)[nH]1 (centres undefined) | 4.01 | 2.98 µM | –
Cc1cccc(N2CCN(C(=O)c3ccc(CNc4c(N5CCC(C)CC5)c(=O)c4=O)cc3)CC2)c1C | – | – | inactive
COC(=O)CSc1ncnc2c1cnn2-c1ccc(C)cc1C | 6.65 | 5.41 µM | –
CC1CCCN(C(=O)c2ccc(CNc3c(N4CCCCC4)c(=O)c3=O)cc2)C1 (centres undefined) | – | 14.1 µM | –
O=C(c1ccc(CNc2c(N3CCCC3)c(=O)c2=O)cc1)N1CCc2ccccc2C1 | – | 13.4 µM | –
Cc1cccc(N2CCN(C(=O)c3ccc(CNc4c(N5CCC(C)CC5)c(=O)c4=O)cc3)CC2C)c1 (centres undefined) | 51.8 | 40.9 µM | –
